For data set [1] the following is noted: Liquid; for Normal boiling temperature: Ebulliometric method (Recirculating still).
A short description of data set [2]: excess molar enthalpy (molar enthalpy of mixing); xn = mol fraction of the nth substance listed. As to conditions: 303.15 K, 101 kPa, Liquid, Calvet calorimetry.

± gives the expanded uncertainty stated by the source.

Take `c1ccncc1` [pyridine]: the mass density in data set [1] (298.15 K, 101.33 kPa, Pycnometric method) was found to be 980.8 ± 1 kg/m3. Besides, the Normal boiling temperature in data set [1] was 116 ± 0.1 °C.

As for `c1ccncc1` [pyridine] + CCO, the excess molar enthalpy in data set [2] (x2 = 0.032) is -0.000359 ± 0.000191 kcal/mol; in data set [2] (x2 = 0.082), -0.00153 ± 0.000191 kcal/mol; in data set [2] (x2 = 0.127), -0.00308 ± 0.000239 kcal/mol; in data set [2] (x2 = 0.192), -0.00545 ± 0.000311 kcal/mol; in data set [2] (x2 = 0.251) it was -0.00827 ± 0.000406 kcal/mol; in data set [2] (x2 = 0.351) it was -0.0122 ± 0.00055 kcal/mol. In addition, the excess molar enthalpy in data set [2] (x2 = 0.447) is -0.0172 ± 0.000741 kcal/mol; in data set [2] (x2 = 0.502), -0.0185 ± 0.000789 kcal/mol; in data set [2] (x2 = 0.572) it was -0.0189 ± 0.000813 kcal/mol; in data set [2] (x2 = 0.653), -0.0152 ± 0.000669 kcal/mol; in data set [2] (x2 = 0.734), -0.0126 ± 0.000574 kcal/mol; in data set [2] (x2 = 0.874), -0.00598 ± 0.000311 kcal/mol.

With `CCO` [ethanol], the Normal boiling temperature in data set [1] was 78.2 ± 0.1 °C.

What is called mass density is the mass of a sample divided by its volume.

Values taken from the NIST ThermoML archive (doi:10.1021/je1002048).
